The nature of data set [1]: Doxorubicin toxicity in naive mice (body weight, food intake, survival). In kind it is in vivo, C57/BL6 mice. The following applies: doxorubicin 25 mg/kg. On the procedure: Two of four groups of five naive C57/BL6 mice were treated with doxorubicin (dox) at dose of 25 mg/kg, whereas the other two groups were left untreated. To assess PTD−TFAM's ability to ameliorate the toxic effects of Doxorubicin one group each of the dox-treated and untreated animals received PTD−TFAM at a dose of 0.3mg/kg on the same day as they were treated with Doxorubicin and every four days for two weeks thereafter (indicated with arrows in FIG. 1). Concurrently mice in the last two groups (one treated and one untreated with Doxorubicin) received vehicle alone (100 μl of 50% sorbitol, 2×PBS). To assess toxicity of the Doxorubicin treatment, mice were weighed once daily.
Each treatment group was housed together in cage separate from the other treatment group(s). The animals in each case share a food hopper. Food intake was evaluated on a group-by-group basis by weighing each group's food once daily. The difference in food weight between two days provides a rough estimate of the group's food intake during the period between two measurements (i.e, a day).

For data set [2], the system named is orthotopic MiaPaca-2 xenografts. Briefly: Gemcitabine toxicity in orthotopic model of pancreatic cancer. In kind it is in vivo, BALB/c nude mouse. Conditions: gemcitabine 40 mg/kg every 3 days. On the procedure: MiaPaCa-2 tumor cells was maintained in vitro as monolayer culture in DMEM medium supplemented with 10% fetal bovine serum, 2.5% horse serum, 100 U/ml penicillin and 100 μg/m1 streptomycin, and 2 mM L-glutamine at 37° C. in an atmosphere of 5% CO2 in air. The tumor cells were routinely subcultured twice weekly by trypsin-EDTA treatment. Cells in an exponential growth phase will be harvested and counted for tumor inoculation. Before orthotopic implantation, 5×10^6 MiaPaca-2 cells in 50 μl PBS mixed with 50 μl Matrigel were inoculated subcutaneously at the right flank of each BALB/c nude mouse. Upon subcutaneous tumor size reaching about 500 mm^3, tumors were collected for orthotopic implantation.
For orthotopic MiaPaca-2 xenografts, mice were anesthetized by intraperitoneal injection of pentobarbital sodium (50 mg/kg) before tumor inoculation. The abdominal skin was sterilized and laparotomy was performed to expose the pancreas. Each mouse was inoculated with a subcutaneous MiaPaca-2 tumor fragment (2-3 mm in diameter) in the subcapsular region of the pancreas for tumor development. The abdominal wall was closed using No. 6 suture and then sterilized with povidone iodine solution. The day of surgery was denoted as Day 0 (DO). […] The body weight of each mouse was measured on treatment days 1, 5, 8, 12, 15, 19 and 22. […]

`COc1cccc2c1C(=O)c1c(O)c3c(c(O)c1C2=O)C[C@@](O)(C(=O)CO)C[C@@H]3O[C@H]1C[C@H](N)[C@H](O)[C@H](C)O1` [dox, doxorubicin]: the deaths / survival result in data set [1] (PTD-TFAM 0.3 mg/kg every four days, five mice per group) is on record as “One of the mice in dox only treatment group began to gain weight, but died on day 14”. In addition, in data set [1] (per cage of five mice), the “food consumed by the group combined during days 6-8” value is given as “less than two grams”.

`Nc1ccn([C@@H]2O[C@H](CO)[C@@H](O)C2(F)F)c(=O)n1` [gemcitabine]: the “mice dead by day 22” value in data set [2] was 50%.

For the origin of these results see US20160038565A1, “Methods of Mitigating Side Effects of Radiation Exposure and Chemotherapy” (Gencia Corporation, priority 2012, published 2016).
